“Also recorded” adds a separate entry of the source.
What was measured:
[1] = system: voltage-gated Ca^2+ channels (VGCC); assay: Calcium channel antagonist assay (K+-evoked cytosolic Ca2+, Fluo-4); format: cell-based; conditions: SH-SY5Y cells, K+ 70 mM, mean ± SEM, read-out: IC50 (µM) Calcium channels blockade
Protocol: The cytosolic Ca^2+ has been measured in SH-SY5Y cells. SH-SY5Y cells were maintained similarly to what was previously described^30. Free cytosolic Ca^2+ was measured using the fluorescent Ca^2+ indicator Fluo-4/AM (Fluo-4 acetomethoxyester). SH-SY5Y cells were seeded onto 96-well black plates at a density of 10^5 cells per well, achieving confluence after 48 h. Cells were washed with Krebs-Hepes solution (KH, in mM: 144 NaCl, 5.9 KCl, 1.2 MgCl2, 2 CaCl2, 11 D-glucose, 10 HEPES, pH 7.4). Cells were loaded with 10 µM Fluo-4/AM and 0.2% pluronic acid in KH and incubated for 45 min at 37 °C in the dark. Then, cells were washed twice with KH to remove the excess of probe. Tested compounds were incubated 10 min before K+ 70 mM was applied to evoke the increment of cytosolic Ca^2+. To normalize Fluo-4 signals, Triton X-100 (5%) and 1 M MnCl2 were applied to register both maximal and minimal fluorescence, respectively. The experiments were analyzed at excitation and emission wavelengths of 485 and 520 nm, respectively, and fluorescence was measured in a fluorescence microplate reader (FLUOstar Optima, BMG, Germany). Data were calculated as a percentage of Fmax - Fmin.
The blocking effect of the depolarization-induced Ca^2+ uptake was investigated in SH-SY5Y neuroblastoma cells stimulated with an extracellular concentration of K+ 70 mM, which induces the cell Ca^2+ levels elevation by opening voltage-gated Ca^2+ channels (VGCC), monitored with the Ca^2+-sensitive fluorescent dye Fluo-4. Nifedipine was used as positive standard.

[2] = Prediction of blood-brain barrier penetration (PAMPA); format: in vitro ADME; conditions: for CNS: PAMPA prediction of ability to cross the blood-brain barrier
Protocol: To predict passive blood-brain penetration of novel compounds modification of the parallel artificial membrane permeation (PAMPA) assay has been used based on reported protocol^38, 39. The filter membrane of the donor plate was coated with PBL (Polar Brain Lipid, Avanti, USA) in dodecane (4 µl of 20 mg/ml PBL in dodecane) and the acceptor well was filled with 300 µl of PBS pH 7.4 buffer (VD). Tested compounds were dissolved first in DMSO (0.5% (V/V) final) and that diluted with PBS pH 7.4 to reach the final concentration 50 µM in the donor well. 300 µl of the donor solution was added to the donor wells (VA) and the donor filter plate was carefully put on the acceptor plate so that coated membrane was "in touch" with both donor solution and acceptor buffer. Test compound diffused from the donor well through the lipid membrane (Area=0.28cm^2) to the acceptor well. The concentration of the drug in both donor and the acceptor wells was assessed after 3, 4, 5 and 6 hours of incubation in quadruplicate using the UV plate reader Synergy HT (Biotek, USA) at the maximum absorption wavelength and the standard curve for each compound. […]

[3] = target: T1, human recombinant butyrylcholinesterase (hBuChE; EC 3.1.1.8) (Homo sapiens, UniProt P06276); assay: Cholinesterase inhibition in vitro assay (modified Ellman's method), BuChE; format: biochemical; conditions: pH 7.4, 37 °C, mean ± SEM, read-out: BChE (IC50 µM)
T1 construct: purchased Sigma-Aldrich (Prague, Czech Republic)
T1 sequence (P06276 29-602): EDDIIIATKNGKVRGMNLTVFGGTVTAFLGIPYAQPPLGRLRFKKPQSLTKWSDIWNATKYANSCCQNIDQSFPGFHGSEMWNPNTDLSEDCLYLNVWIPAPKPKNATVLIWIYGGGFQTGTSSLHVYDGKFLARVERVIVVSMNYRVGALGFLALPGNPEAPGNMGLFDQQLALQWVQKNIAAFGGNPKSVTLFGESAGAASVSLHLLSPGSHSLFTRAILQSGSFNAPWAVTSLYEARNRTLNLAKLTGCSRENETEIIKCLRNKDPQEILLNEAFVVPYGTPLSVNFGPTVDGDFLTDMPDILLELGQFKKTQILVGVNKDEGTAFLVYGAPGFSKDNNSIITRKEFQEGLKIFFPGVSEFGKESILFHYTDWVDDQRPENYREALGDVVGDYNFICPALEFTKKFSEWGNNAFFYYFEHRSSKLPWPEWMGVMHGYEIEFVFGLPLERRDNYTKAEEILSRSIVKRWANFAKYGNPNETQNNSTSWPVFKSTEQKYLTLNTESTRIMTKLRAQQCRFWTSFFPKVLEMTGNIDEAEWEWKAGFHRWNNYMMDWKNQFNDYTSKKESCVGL
Protocol: The AChE and BuChE inhibitory activity of the tested compounds was determined using a modified Ellman's method^31, 32.Human red-blood cell acetylcholinesterase (hAChE; EC 3.1.1.7), and human recombinant butyrylcholinesterase (hBuChE; EC 3.1.1.8), 5,5'-dithiobis(2-nitrobenzoic acid) (Ellman's reagent, DTNB), phosphate buffer (PB, pH 7.4), acetylthiocholine (ATC), and butyrylthiocholine (BTC), were purchased from Sigma-Aldrich (Prague, Czech Republic). Nunc polystyrene 96-well microplates with flat-bottom shape (ThermoFisher Scientific, USA) were used for the measurement and all the assay were carried out in 0.1 M KH2PO4/K2HPO4 buffer, pH 7.4. Enzyme solution was prepared at activity 2.0 units/mL in 2 mL aliquots. The assay mixture (100 µL) consisted of 40 µL of 0.1 M phosphate buffer (pH 7.4), 20 µL of 0.01 M DTNB, 10 µL of enzyme, and 20 µL of 0.01 M substrate (ATC iodide solution). Tested compounds were dissolved first in methanol (BIGI 23 in DMSO) and then further diluted by assay buffer to the final concentration. […]. […] Enzyme with the inhibitor was preincubated for 5 min in the assay mixture and then the reaction was started by addition of 20 µL of substrate (ATC for AChE, BTC for BuChE). The enzyme activity was determined by measuring the increase in absorbance at 412 nm at 37 °C at 2 min intervals using a Multi-mode microplate reader Synergy 2 (Vermont, USA). Each concentration was assayed in triplicate. The obtained data were used to compute the percentage inhibition (I; Equation 1): I = 1−(ΔAi)/(ΔA0) [%] [formula] ΔAi indicates the absorbance change provided by cholinesterase exposed to AChE inhibitors and ΔA0 indicates absorbance change caused by intact cholinesterase (phosphate buffer was used instead of AChE inhibitor solution). […] Calculations were performed using software Microsoft Excel (Redmont, WA, USA) and GraphPad Prism version 5.02 for Windows, GraphPad Software, San Diego, CA, USA.

[4] = Oxygen Radical Absorbance Capacity (ORAC-FL) assay; conditions: Trolox equivalents (µmol of Trolox equivalent/µmol of compound)
Protocol: The radical scavenging capacity of the TFAHs was determined by the ORAC-FL method using fluorescein as a fluorescent probe^33,34. (±)-6-Hydroxy-2,5,7,8-tetramethylchromane-2-carboxylic acid (Trolox), fluorescein (FL) and 2,2'-azobis(amidinopropane) dihydrochloride (AAPH) were purchased from Sigma-Aldrich. A Varioskan Flash plate reader with built-in injectors (Thermo Scientific) was used. The reaction was carried out at 37 °C in 75 mM phosphate buffer (pH= 7.4), and the final volume reaction mixture was 200 µL. The tested compounds and Trolox standard were dissolved in DMSO to 10 mM and further diluted in 75 mM phosphate buffer (pH= 7.4). The final concentrations were 0.1-1 µM for the tested compounds and 1-8 µM for Trolox standard. The blank was composed of 120 µL of FL, 60 µL of AAPH and 20 µL of phosphate buffer (pH=7.4) and was added in each assay.
The net AUC corresponding to a sample was calculated as follows: Net AUC = AUCantioxidant −AUCblank . [formula]
Regression equations were calculated by plotting the net AUC against the antioxidant concentration. The ORAC value was obtained by dividing the slope of the latter curve between the slope of the Trolox curve obtained in the same assay. Final ORAC values were expressed as µmol of Trolox equivalent/µmol of TFAH.

Compound | IC50 [1] | CNS [2] | Papp at 50 µM ([2]; PAMPA, PBS pH 7.4, 50 µM in donor well, read-out: Pe ± SEM) | IC50 [3] | ORAC [4]
CCOC(=O)C1=C(C)N(CCC2CCN(Cc3ccccc3)CC2)C(=O)NC1c1coc2c(Cl)cc(Cl)cc2c1=O (racemic) [BIGI-3h, ethyl 1-(2-(1-benzylpiperidin-4-yl)ethyl)-4-(6,8-dichloro-4-oxo-4H-chromen-3-yl)-6-methyl-2-oxo-1,2,3,4-tetrahydropyrimidine-5-carboxylate] | 1.4 ± 0.4 µM | best ability to cross the BBB; also recorded: CNS (+) | 40 ± 3 nm/s | 17.3 ± 0.9 µM | 3.65± 0.07 TE
CCOC(=O)C1=C(C)N(CCC2CCN(Cc3ccccc3)CC2)C(=O)NC1c1coc2ccc(Br)cc2c1=O (stereo not shown) [BIGI-3e, ethyl 1-(2-(1-benzylpiperidin-4-yl)ethyl)-4-(6-bromo-4-oxo-4H-chromen-3-yl)-6-methyl-2-oxo-1,2,3,4-tetrahydropyrimidine-5-carboxylate] | 1.9 ± 0.6 µM | CNS (+/-) | – | 8.4 ± 0.34 µM | 3.26 ± 0.12 TE
CCOC(=O)C1=C(C)N(CCCC2CCN(Cc3ccccc3)CC2)C(=O)NC1c1coc2cc(CC)ccc2c1=O (stereo not shown) [BIGI-3k, ethyl 1-(3-(1-benzylpiperidin-4-yl)propyl)-4-(7-ethyl-4-oxo-4H-chromen-3-yl)-6-methyl-2-oxo-1,2,3,4-tetrahydropyrimidine-5-carboxylate] | 1.4 ± 0.5 µM | CNS (-) | – | 2.95 µM | 2.75 ± 0.16 TE

From patent EP4168403B1 (priority 2020, dated 2021)
